{"source": "BindingDB's records for doi:10.1021/jm200304y", "about": "(Kyoto University, 2011)", "experiment": "Inhibition of SREBP2 activation expressed in CHO-K1 cells co-transfected with pSRE-Luc plasmid assessed as inhibition of luciferase expression after 20 hrs by luciferase reporter gene assay", "data": [{"molecule": "CCCc1cc(-c2nc(-c3ccc(OC(=O)c4ccccc4)cc3)cs2)ccn1", "values": [{"measurement": "IC50", "result": 7.7, "unit": "µM"}]}, {"molecule": "CCc1cc(-c2nc(-c3ccc(C)cc3)cs2)ccn1", "values": [{"measurement": "IC50", "result": 6.8, "unit": "µM"}]}, {"molecule": "Cc1ccc(-c2csc(-c3ccccc3)n2)cc1", "values": [{"measurement": "IC50", "result": 18.6, "unit": "µM"}]}, {"molecule": "CCCc1cc(-c2nc(-c3cccc(OC)c3)cs2)ccn1", "values": [{"measurement": "IC50", "result": 10.2, "unit": "µM"}]}, {"molecule": "CCCc1cc(-c2nc(-c3ccc(NC(=O)OC(C)(C)C)cc3)cs2)ccn1", "values": [{"measurement": "IC50", "result": 1.9, "unit": "µM"}]}, {"molecule": "Cc1ccc(-c2csc(-c3ccncc3)n2)cc1", "values": [{"measurement": "IC50", "result": "> 30", "unit": "µM"}]}, {"molecule": "CCCc1cc(-c2nc(-c3ccccc3O)cs2)ccn1", "values": [{"measurement": "IC50", "result": 14.4, "unit": "µM"}]}, {"molecule": "CCCc1cc(-c2nc(-c3ccc(Br)cc3)cs2)ccn1", "values": [{"measurement": "IC50", "result": 9.8, "unit": "µM"}]}, {"molecule": "CCCc1cc(-c2nc(-c3ccc(Cl)cc3)cs2)ccn1", "note": "[SMR000177579]", "values": [{"measurement": "IC50", "result": 10.7, "unit": "µM"}]}, {"molecule": "CCCc1cc(-c2nc(-c3ccc(NS(C)(=O)=O)cc3)cs2)ccn1", "values": [{"measurement": "IC50", "result": 0.7, "unit": "µM"}]}, {"molecule": "CCCc1cc(-c2nc(-c3cccc(O)c3)cs2)ccn1", "values": [{"measurement": "IC50", "result": 9.5, "unit": "µM"}]}, {"molecule": "CCCc1cc(-c2nc(-c3ccc(NCC4CC4)cc3)cs2)ccn1", "values": [{"measurement": "IC50", "result": 4.9, "unit": "µM"}]}, {"molecule": "C[C@H](CCCC(C)(C)O)[C@H]1CC[C@H]2[C@@H]3CC=C4C[C@@H](O)CC[C@]4(C)[C@H]3CC[C@]12C", "note": "[(1S,2R,5S,10S,11S,14R,15R)-14-[(2R)-6-hydroxy-6-methylheptan-2-yl]-2,15-dimethyltetracyclo[8.7.0.0^{2,7}.0^{11,15}]heptadec-7-en-5-ol]", "values": [{"measurement": "IC50", "result": 0.3, "unit": "µM"}]}, {"molecule": "CCCc1cc(-c2nc(-c3ccc(NCc4ccccc4)cc3)cs2)ccn1", "values": [{"measurement": "IC50", "result": 3, "unit": "µM"}]}, {"molecule": "CCCc1cc(-c2nc(-c3ccc(NS(=O)(=O)c4cccs4)cc3)cs2)ccn1", "values": [{"measurement": "IC50", "result": 0.9, "unit": "µM"}]}, {"molecule": "CCCc1cc(-c2nc(-c3ccc(NC(C)C)cc3)cs2)ccn1", "values": [{"measurement": "IC50", "result": 2.8, "unit": "µM"}]}, {"molecule": "CCCc1cc(-c2nc(-c3ccccc3)cs2)ccn1", "values": [{"measurement": "IC50", "result": 23, "unit": "µM"}]}, {"molecule": "CCCc1cc(-c2ccc(-c3ccc(C)cc3)cc2)ccn1", "values": [{"measurement": "IC50", "result": "> 30", "unit": "µM"}]}, {"molecule": "CCCc1cc(-c2nc(-c3ccc(NS(=O)(=O)c4ccc(C)cc4)cc3)cs2)ccn1", "values": [{"measurement": "IC50", "result": 2.3, "unit": "µM"}]}, {"molecule": "CCCc1cc(-c2nc(-c3cccs3)cs2)ccn1", "values": [{"measurement": "IC50", "result": 14.7, "unit": "µM"}]}, {"molecule": "CCCc1cc(-c2nc(-c3ccc(NC(C)=O)cc3)cs2)ccn1", "values": [{"measurement": "IC50", "result": 7.1, "unit": "µM"}]}, {"molecule": "CCCc1cc(-c2nc(-c3ccc(N)cc3)cs2)ccn1", "values": [{"measurement": "IC50", "result": 8.6, "unit": "µM"}]}, {"molecule": "CCCc1cc(-c2nc(-c3ccc(C)cc3)cs2)ccn1", "note": "[SMR000221636]", "values": [{"measurement": "IC50", "result": 5.6, "unit": "µM"}]}, {"molecule": "CCCc1cc(-c2nc(-c3ccc(F)cc3)cs2)ccn1", "values": [{"measurement": "IC50", "result": 12.4, "unit": "µM"}]}, {"molecule": "CCCc1cc(-c2nc(-c3ccc(OC)cc3)cs2)ccn1", "values": [{"measurement": "IC50", "result": 13, "unit": "µM"}]}, {"molecule": "CCCc1cc(-c2nc(-c3ccc(O)cc3)cs2)ccn1", "values": [{"measurement": "IC50", "result": 9.6, "unit": "µM"}]}, {"molecule": "CCCc1cc(-c2nc(-c3ccccc3OC)cs2)ccn1", "values": [{"measurement": "IC50", "result": 3.2, "unit": "µM"}]}]}
